Measurements reported in article PMC10849753, “Antiproliferative activity of platinum(II) and copper(II) complexes containing novel biquinoxaline ligands” (Metallomics: Integrated Biometal Science, 2024).

Tested on: A172, LN229, U87, A549, Hela, PC-3, and MDA-231 cells
Assay: ROS production, DCFDA assay, all used cell lines
Type: cell-based, human
Settings: positive control at 500 μM concentration
Method: The reactive oxygen species (ROS) formation on the selected cell lines upon exposure to the synthesized Cu(II) and Pt(II) complexes was investigated using the oxidation-sensitive dye, 2ʹ,7ʹ-dichlorofluorescein diacetate (DCFDA, #D6883 Sigma-Aldrich). The cell lines (A172, LN229, U87, HeLa, MDA-231, PC-3, A549, and CHO-K1) were seeded (6 × 10^3 cells/well) into the 96-well plates and incubated at 37°C and 5% CO2 for 24 h. After that, the Cu(II) and Pt(II) complexes, at a concentration range of 6.25 to 100 μM, were added to the cell monolayers. Hydrogen peroxide (H2O2), at concentrations from 50 to 500 μM, was utilized as a positive control. The following day, 5 μM of DCFDA in PBS was added to the cell monolayers and, then, the plate was incubated for 30–45 min. Consequently, the fluorescence intensity was measured with 485 nm excitation and 535 nm emission wavelengths using a microplate reader. The fluorescence values of each treatment were normalized to the negative control, including only growth medium without any treatment. The assay was repeated in triplicate.

SMILES: OO [H2O2, Hydrogen peroxide, reference compound]
- ROS generation: 3 fold
